In patent US20170107212A1, “NOVEL COMPOUNDS” (Bayer Pharma Aktiengesellschaft, priority 2014, published 2017):
Counter-ions that a name gives are not always drawn.

Columns and labels:
[1] = system: constitutive active colorectal cancer cell (CRC) Wnt pathway, HCT116 TOPFlash; assay: Cellular reporter assay, HCT116 Super TopFlash (constitutive active Wnt pathway), luciferase expression; format: cell-based; settings: Homo sapiens, HCT-116, 36 h, HCT116 Super TopFlash reporter cells, 36 hours incubation, dilution series 50 μM to 15 nM
How it was run: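 HCT116 cells stably carrying Super TopFlash (β-catenin ΔS45, constitutive Wnt) run in parallel with FOP control line; compounds 50 μM to 15 nM (3.16-fold) in CAFTY buffer pH 7.4 with 2 mM Ca2+, 0.01% BSA, 36 h at 37 °C. Luciferase luminescence read as Wnt activity.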

HCT116 FOPFlash = assay: Control reporter assay, HCT116 FOP control vector (non-functional TCF elements), luciferase expression; format: cell-based; settings: Homo sapiens, HCT-116, 36 h, HCT116 FOP control reporter cells, 36 hours incubation, dilution series 50 μM to 15 nM
How it was run: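 Stable HCT116 cells carrying FOP vector (randomized non-functional TCF sites) plus pcDNA3, run in parallel with TOP line; compounds 50 μM to 15 nM (3.16-fold steps) added in CAFTY buffer pH 7.4 with 2 mM Ca2+, 0.01% BSA. Incubated 36 h at 37 °C, 5% CO2; luciferase luminescence read.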

| IC50 [1] | IC50 (HCT116 FOPFlash) | Structure (SMILES) |
| --- | --- | --- |
| 1.14 µM | ≥ 50 µM | Cc1ncccc1-c1nnc(NC(=O)c2ccc(OC(F)(F)F)c(NC(=O)CN3CCOCC3)c2)s1 [Example 28, N-[5-(2-methylpyridin-3-yl)-1,3,4-thiadiazol-2-yl]-3-[(morpholin-4-ylacetyl)amino]-4-(trifluoromethoxy)benzamide] |
| 26.1 µM | ≥ 50 µM | COCCCOc1ccc(C(=O)Nc2nnc(-c3cnccc3C)s2)cc1NC(=O)CN1CCN(C)CC1 [Example 114, 4-(3-methoxypropoxy)-3-{[(4-methylpiperazin-1-yl)acetyl)amino}-N-[5-(4-methylpyridin-3-yl)-1,3,4-thiadiazol-2-yl]benzamide] |
| 21.2 µM | ≥ 50 µM | O=C(CN1CCOCC1)Nc1cc(C(=O)Nc2nnc(-c3cccnc3)s2)ccc1OC(F)(F)F [Example 82, 3-[(morpholin-4-ylacetyl)amino]-N-[5-(pyridin-3-yl)-1,3,4-thiadiazol-2-yl]-4-(trifluoromethoxy)benzamide] |
| 0.105 µM | ≥ 50 µM | CN1CCN(C2(C(=O)Nc3cc(C(=O)Nc4nnc(-c5cccnc5)s4)ccc3OC(F)(F)F)CC2)CC1 [Example 19, 3-({[1-(4-methylpiperazin-1-yl)cyclopropyl]carbonyl}amino)-N-[5-(pyridin-3-yl)-1,3,4-thiadiazol-2-yl]-4-(trifluoromethoxy)benzamide hydrochloride] |
| 1.08 µM | 43.5 µM | Cc1csc(-c2nnc(NC(=O)c3ccc(OC(F)(F)F)c(NC(=O)CN4CCN(C)CC4)c3)s2)n1 [Example 63, 3-{[(4-methylpiperazin-1-yl)acetyl]amino}-N-[5-(4-methyl-1,3-thiazol-2-yl)-1,3,4-thiadiazol-2-yl]-4-(trifluoromethoxy)benzamide] |
| 32 µM | ≥ 50 µM | CN1CCN(CC(=O)Nc2cc(C(=O)Nc3nnc(-c4cnccc4F)s3)ccc2OC(F)(F)F)CC1 [Example 109, N-[5-(4-fluoropyridin-3-yl)-1,3,4-thiadiazol-2-yl]-3-{[(4-methylpiperazin-1-yl)acetyl]amino}-4-(trifluoromethoxy}benzamide] |
| 0.293 µM | 20.5 µM | CN1CCN(CC(=O)Nc2cc(C(=O)Nc3nnc(-c4cccnc4)s3)ccc2OCC(F)(F)F)CC1 [Example 50, 3-{[(4-methylpiperazin-1-yl)acetyl]amino}-N-[5-(pyridin-3-yl)-1,3,4-thiadiazol-2-yl]-4-(2,2,2-trifluoroethoxy)benzamide hydrochloride (1:1)] |
| 7.4 µM | 31 µM | CN1CCN(CC(=O)Nc2cc(C(=O)Nc3nnc(-c4ccnc(N)c4)s3)ccc2OC(F)(F)F)CC1 [Example 90, N-[5-(2-aminopyridin-4-yl)-1,3,4-thiadiazol-2-yl]-3-{[(4-methylpiperazin-1-yl)acetyl]amino}-4-(trifluoromethoxy)benzamide] |

The next lines start with the compound.

| Structure (SMILES) | IC50 [1] | IC50 (HCT116 FOPFlash) |
| --- | --- | --- |
| Cc1csc(-c2nnc(NC(=O)c3ccc(OC(F)(F)F)c(NC(=O)CN4CCOCC4)c3)s2)n1 [Example 92, N-[5-(4-methyl-1,3-thiazol-2-yl)-1,3,4-thiadiazol-2-yl]-3-[(morpholin-4-ylacetyl)amino]-4-(trifluoromethoxy)benzamide] | 21.2 µM | ≥ 50 µM |
| CN1CCN(CC(=O)Nc2cc(C(=O)Nc3ccc(-c4cccnc4)cn3)ccc2OC(F)(F)F)CC1 [Example 11, N-(3,3′-bipyridin-6-yl)-3-{[(4-methylpiperazin-1-yl)acetyl]amino}-4-(trifluoromethoxy)benzamide] | 0.0188 µM | ≥ 50 µM |
| CN1CCN(CC(=O)Nc2cc(C(=O)Nc3ccc(-c4cnc(N)nc4)cn3)ccc2OC(F)(F)F)CC1 [Example 12, N-[5-(2-aminopyrimidin-5-yl)pyridin-2-yl]-3-{[(4-methylpiperazin-1-yl)acetyl]amino}-4-(trifluoromethoxy)benzamide] | 0.132 µM | ≥ 50 µM |
| CN1CCN(CC(=O)Nc2cc(C(=O)Nc3cnc(-c4ccnc(N)c4)cn3)ccc2OC(F)(F)F)CC1 [Example 53, N-[5-(2-aminopyridin-4-yl)pyrazin-2-yl]-3-{[(4-methylpiperazin-1-yl)acetyl]amino}-4-(trifluoromethoxy)benzamide] | 2 µM | ≥ 50 µM |
| COc1ncc(-c2ccc(NC(=O)c3ccc(OC(F)(F)F)c(NC(=O)C(C)N4CCOCC4)c3)cn2)cn1 (stereo not drawn) [Example 7, N-[6-(2-methoxypyrimidin-5-yl)pyridin-3-yl]-3-{[2-(morpholin-4-yl)propanoyl]amino}-4-(trifluoromethoxy)benzamide] | 0.115 µM | ≥ 50 µM |
| CN1CCN(CC(=O)Nc2cc(C(=O)Nc3nnc(-c4cccnc4)s3)ccc2Cl)CC1 [Example 84, 4-chloro-3-{[(4-methylpiperazin-1-yl)acetyl]amino}-N-[5-(pyridin-3-yl)-1,3,4-thiadiazol-2-yl]benzamide hydrochloride] | ≥ 50 µM | ≥ 50 µM |
| O=C(Nc1nnc(-c2cncnc2)s1)c1ccc(OC(F)(F)F)c(NC(=O)C2(N3CCOCC3)CC2)c1 [Example 30, 3-({[1-(morpholin-4-yl)cyclopropyl]carbonyl}amino)-N-[5-(pyrimidin-5-yl)-1,3,4-thiadiazol-2-yl]-4-(trifluoromethoxy)benzamide] | 0.535 µM | ≥ 50 µM |
| CN1CCN(CC(=O)Nc2cc(C(=O)Nc3cnc(-c4ccc(N)nc4)cn3)ccc2OC(F)(F)F)CC1 [Example 54, N-[5-(6-aminopyridin-3-yl)pyrazin-2-yl]-3-{[(4-methylpiperazin-1-yl)acetyl]amino}-4-(trifluoromethoxy)benzamide] | 0.0355 µM | ≥ 50 µM |
| O=C(CN1CCOCC1)Nc1cc(C(=O)Nc2nnc(-c3cnccn3)s2)ccc1OC1CC1 [Example 117, 4-(cyclopropyloxy)-3-[(morpholin-4-ylacetyl)amino]-N-[5-(pyrazin-2-yl)-1,3,4-thiadiazol-2-yl]benzamide] | ≥ 50 µM | ≥ 50 µM |
| CN1CCN(CC(=O)Nc2cc(C(=O)Nc3nnc(-c4cnccn4)s3)ccc2OC2CC2)CC1 [Example 60, 4-(cyclopropyloxy)-3-{[(4-methylpiperazin-1-yl)acetyl]amino}-N-[5-(pyrazin-2-yl)-1,3,4-thiadiazol-2-yl]benzamide] | 4.4 µM | ≥ 50 µM |
| O=C(CN1CCOCC1)Nc1cc(C(=O)Nc2nnc(-c3cncnc3)s2)ccc1OC(F)(F)F [Example 69, 3-[(morpholin-4-ylacetyl)amino]-N-[5-(pyrimidin-5-yl)-1,3,4-thiadiazol-2-yl]-4-(trifluoromethoxy)benzamide] | 2.45 µM | ≥ 50 µM |
| Cc1scnc1-c1nnc(NC(=O)c2ccc(OC(F)(F)F)c(NC(=O)CN3CCOCC3)c2)s1 [Example 105, N-[5-(5-methyl-1,3-thiazol-4-yl)-1,3,4-thiadiazol-2-yl)-3-[(morpholin-4-ylacetyl)amino]-4-(trifluoromethoxy)benzamide] | ≥ 50 µM | ≥ 50 µM |
| Cc1ccnc(-c2nnc(NC(=O)c3ccc(OC(F)(F)F)c(NC(=O)CN4CCOCC4)c3)s2)c1 [Example 93, N-[5-(4-methylpyridin-2-yl)-1,3,4-thiadiazol-2-yl]-3-[(morpholin-4-ylacetyl)amino]-4-(trifluoromethoxy)benzamide] | ≥ 50 µM | ≥ 50 µM |
